We go through four molecules from US20090155279A1, “Pseudomonas Aeruginosa Outer Membrane Protein PA5158” (priority 2005, published 2009).

In test [1] the test system is multidrug resistant Pseudomonas aeruginosa MSC06120 strains. Kind of test: Minimum inhibitory concentrations for MSC06120 strains. Particulars: read-out: Minimum inhibitory concentration. Type of test: cell-based.
Test [2] concerns Pseudomonas aeruginosa PA103 strains (ATCC29260). The test is described as follows: Enhancement of anti-Pseudomonas aeruginosa activity of gentamicin (viable count). The class given is cell-based. The settings on record: gentamicin 0.125 μg/ml plus PBS (negative control group), 4 hours at 37° C. The protocol: Pseudomonas aeruginosa PA103 strains (ATCC29260) were shake cultured overnight at 37° C. in a Mueller-Hinton liquid medium and diluted to 1×10^5 cfu/ml with the same medium. Then, the strains were shake cultured again at 37° C. Two hours later, gentamicin was added at a concentration of 0.125 μg/ml. Likewise, to a negative control group, PBS was added at a concentration of 300 μg/ml. To antibody-added groups, rat anti-PA5158L1 IgG as the monoclonal antibody produced by the hybridoma deposited under the accession No. FERM-BP-10672, rat anti-PA5158L2 IgG as the IgG fraction purified from the KLH-conjugated peptide (SEQ ID No: 6)-immunized rat sera, and rat anti-PA5158 IgG as the IgG fraction purified from the PA5158 recombinant protein-immunized rat sera were added at each concentration of 300 μg/ml. Then, shake culture was carried out at 37° C. for 4 hours, and the number of viable strains in each group was measured.

Values after ≈ are worked out from the molar mass of the structure shown. Some results are limits rather than exact numbers.

As to `NCC[C@H](O)C(=O)N[C@@H]1C[C@H](N)[C@@H](O[C@H]2O[C@H](CN)[C@@H](O)[C@H](O)[C@H]2O)[C@H](O)[C@H]1O[C@H]1O[C@H](CO)[C@@H](O)[C@H](N)[C@H]1O` [amikacin], in test [1], the MIC was 64 µg/mL (≈ 109 µM).

As to `O=C(O)c1cn(C2CC2)c2cc(N3CCNCC3)c(F)cc2c1=O` [ciprofloxacin], in test [1], the MIC is above 256 µg/mL.

On to `C[C@@H](O)[C@H]1C(=O)N2C(C(=O)O)=C(SCCN=CN)C[C@H]12` [imipenem], for which, in test [1], the MIC stood at 32 µg/mL (≈ 107 µM).

With gentamicin, the “Number of viable strains” value in test [2] is 5.4×10^6 cfu/ml.
